Assay results as given in patent US12329745B2, “Methods and compositions for treating glucocorticoid excess” (Sparrow Pharmaceuticals, Inc., priority 2022, dated 2025).
Like-named read-outs stand apart in the source and are kept apart here. Marks after values point to notes of the source that are not given here.

Experiments:
[1] = tested on: urine tetrahydrocortisone; assay: Urine tetrahydrocortisone (excreted cortisone metabolite; liver cortisone levels); format: in vivo, human; conditions: healthy adults
Protocol: In healthy adults administered a single dose of 10, 20, or 50 mg SPI-62 (n=40), the least squares mean (standard error) tetrahydrocortisone was 32.71 (1.149) […] compared to 9.19 (2.300) mol after a single dose of matching placebo (n=10). In the same subjects after 14 daily doses, tetrahydrocortisone was 42.73 (1.968) mol for SPI-62 and 8.51 (0.410) mol for placebo. Similar results were also observed in elderly adults.

serum cortisone = assay: Serum cortisone and cortisol in patients with painful diabetic peripheral neuropathy; format: in vivo, human; conditions: 10 mg for 6 weeks
[2] = Human plasma pharmacokinetics of SPI-62; format: in vivo; conditions: for Cmax: human, plasma, oral
Protocol: The single- and multiple-dose pharmacokinetics of SPI-62 were well-characterized by a two-compartment TMDD population pharmacokinetics model with 3 transit absorption compartments and an estimated target capacity of ˜2.5 mg of SPI-62 which comports well with the dose range in which pharmacokinetic nonlinearity is prominent.

purified human HSD-1 = purified human HSD-1 (Homo sapiens, UniProt P28845); assay: In vitro inhibition of purified human HSD-1; format: biochemical
[3] = Phase 2 trial 3662-CL-0049 in painful diabetic peripheral neuropathy: TC, glucose, HbA1c, TG; format: in vivo, human
Protocol: Analyses of covariance were conducted to analyze total cholesterol (TC), glucose, glycated hemoglobin (HbA1c), and triglycerides (TG), with baseline value as the covariate and a baseline*treatment interaction term, in patients with painful diabetic peripheral neuropathy following daily administration of SPI-62 or placebo. Data were obtained from study 3662-CL-0049, a Phase 2 randomized, double-blind, placebo- and active-controlled clinical trial of the safety and efficacy of SPI-62 in subjects with painful diabetic peripheral neuropathy.

C57BL/6 male mice = assay: Mitigation of corticosterone (CORT) adverse effects in mouse; format: in vivo; conditions: for Fat depot weight, Gonadal, Mean / Fat depot weight, Mesenteric, Mean / Fat depot weight, Retroperitoneal, Mean / Fat depot weight, Subcutaneous, Mean / Muscle weight, Quadriceps, Mean / Muscle weight, Tibialis anterior, Mean: post-mortem Day 36
Protocol: A control group received no CORT or SPI-62. Body weight was assessed daily and food consumption twice weekly. Whole body muscle and fat amounts were measured at Days 0, 14, and 28 using an EchoMRI-130H body composition analyzer. Blood samples for fasting glucose and insulin were obtained at Days 1 (pre-dose), 15, 29, and 35. An open field test was conducted on Day 22. A grip strength test was performed on Day 28. After sacrifice on Day 36, gonadal, subcutaneous, retroperitoneal, and mesenteric fat, quadriceps, and tibialis anterior were dissected and weighed, and skin was formalin fixed and paraffin embedded.

purified human HSD-1, sequence (P28845 whole entry): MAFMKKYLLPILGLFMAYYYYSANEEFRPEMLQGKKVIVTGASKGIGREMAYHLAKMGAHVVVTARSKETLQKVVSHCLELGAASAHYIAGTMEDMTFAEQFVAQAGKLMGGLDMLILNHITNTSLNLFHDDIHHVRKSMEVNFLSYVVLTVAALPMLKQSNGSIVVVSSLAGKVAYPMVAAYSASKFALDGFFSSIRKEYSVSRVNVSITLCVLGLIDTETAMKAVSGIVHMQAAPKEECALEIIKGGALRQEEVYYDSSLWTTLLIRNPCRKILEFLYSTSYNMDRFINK

Cn1c(-c2ccc(C(N)=O)cc2F)nnc1C(C)(C)Oc1c(F)cc(Cl)cc1F [SPI-62, 4-(5-(2-(4-chloro-2,6-difluorophenoxy)propan-2-yl)-4-methyl-4H-1,2,4-triazol-3-yl)-3-fluorobenzamide]
urine tetrahydrocortisone, least squares mean (standard error) ([1]; after 14 daily doses): 42.73 (1.968) mol | urine tetrahydrocortisone, least squares mean (standard error) ([1]; single dose of 10, 20, or 50 mg (n=40)): 32.71 (1.149) mol | serum cortisol (serum cortisone): did not change | serum cortisone (serum cortisone; last day of study drug administration (n=36)): 56.0 (2.37) nM | serum cortisone (serum cortisone; two weeks later): 49.5 (1.75) nM | unbound concentration corresponding to Cmax ([2]; 0.2 mg daily for 14 days): < 0.25 nM | plasma levels after 14 days of dosing, dose proportionality ([2]; doses of 0.2 to 50 mg): approximately dose-proportional | Cmax ([2]; 0.2 mg, 0.2 mg daily for 14 days, last dosing day, read-out: mean maximum plasma drug concentration (Cmax)): < 1 ng/mL | Cmax ([2]; 1 mg, single dose 1 mg, read-out: mean Cmax): < 0.05 ng/mL | Cmax ([2]; multiple doses 0.2 to 50 mg, read-out: Cmax means): 1 to 835 ng/mL | Cmax ([2]; single doses of 6 to 60 mg, read-out: Cmax means): 28 to 595 ng/mL | plasma drug levels (all below the LLOQ) ([2]; single 1 mg dose): < 0.1 ng/mL | unbound concentration corresponding to Cmax ([2]; single dose 1 mg): < 0.012 nM | plasma exposures after single doses, dose proportionality ([2]; single doses, 0.7 to 3 mg much lower dose-normalized levels): substantial non-linearity | estimated target capacity ([2]; two-compartment TMDD population pharmacokinetics model): ~2.5 mg | IC50 (purified human HSD-1): 17 nM | Ki (purified human HSD-1): 5.3 nM | Glucose, least squares mean (standard error) ([3]; Week 6/EOT): 7.61 (0.556) mmol/L | HbA1c, least squares mean (standard error) ([3]; Week 6/EOT): 7.1% | TG, least squares mean (standard error) ([3]; Week 6/EOT): 1.68 (0.202) mmol/L | TC, least squares mean (standard error) ([3]; Week 6/EOT, N = 36): 3.95 (0.120) mmol/L | Glucose, least squares mean (standard error) ([3]; Week 8/EOS): 7.78 (0.546) mmol/L | HbA1c, least squares mean (standard error) ([3]; Week 8/EOS): 7.02% | TC, least squares mean (standard error) ([3]; Week 8/EOS): 4.16 (0.105) mmol/L | TG, least squares mean (standard error) ([3]; Week 8/EOS): 1.63 (0.113) mmol/L | Whole-body fat content LSM (C57BL/6 male mice; 1 mg/kg QD + CORT, Day 14): 0.121^a | Whole-body muscle content LSM (C57BL/6 male mice; 1 mg/kg QD + CORT, Day 14): 0.82^a | HOMA-IR LSM (C57BL/6 male mice; 1 mg/kg QD + CORT, Day 15): 3.73ª mmol glucose/μU insulin | Whole-body fat content LSM (C57BL/6 male mice; 1 mg/kg QD + CORT, Day 28): 0.142^ab | Whole-body muscle content LSM (C57BL/6 male mice; 1 mg/kg QD + CORT, Day 28): 0.77^a | HOMA-IR LSM (C57BL/6 male mice; 1 mg/kg QD + CORT, Day 29): 3.56^ab mmol glucose/μU insulin | HOMA-IR LSM (C57BL/6 male mice; 1 mg/kg QD + CORT, Day 35): 8.16^b mmol glucose/μU insulin | Fat depot weight, Gonadal, Mean (C57BL/6 male mice; 1 mg/kg QD + CORT): 10.60 mg/g body weight | Fat depot weight, Mesenteric, Mean (C57BL/6 male mice; 1 mg/kg QD + CORT): 6.46 mg/g body weight | Fat depot weight, Retroperitoneal, Mean (C57BL/6 male mice; 1 mg/kg QD + CORT): 3.33 mg/g body weight | Fat depot weight, Subcutaneous, Mean (C57BL/6 male mice; 1 mg/kg QD + CORT): 4.04 mg/g body weight | Muscle weight, Quadriceps, Mean (C57BL/6 male mice; 1 mg/kg QD + CORT): 3.98 mg/g body weight | Muscle weight, Tibialis anterior, Mean (C57BL/6 male mice; 1 mg/kg QD + CORT): 1.60 mg/g body weight | Whole-body fat content LSM (C57BL/6 male mice; 10 mg/kg BID + CORT, Day 14): 0.064^b | Whole-body muscle content LSM (C57BL/6 male mice; 10 mg/kg BID + CORT, Day 14): 0.89^b | HOMA-IR LSM (C57BL/6 male mice; 10 mg/kg BID + CORT, Day 15): 0.94^b mmol glucose/μU insulin | Whole-body fat content LSM (C57BL/6 male mice; 10 mg/kg BID + CORT, Day 28): 0.061^b | Whole-body muscle content LSM (C57BL/6 male mice; 10 mg/kg BID + CORT, Day 28): 0.86^b | HOMA-IR LSM (C57BL/6 male mice; 10 mg/kg BID + CORT, Day 29): 0.94^b mmol glucose/μU insulin | HOMA-IR LSM (C57BL/6 male mice; 10 mg/kg BID + CORT, Day 35): 2.16^b mmol glucose/μU insulin | Fat depot weight, Gonadal, Mean (C57BL/6 male mice; 10 mg/kg BID + CORT): 6.02 mg/g body weight | Fat depot weight, Mesenteric, Mean (C57BL/6 male mice; 10 mg/kg BID + CORT): 4.73 mg/g body weight | Fat depot weight, Retroperitoneal, Mean (C57BL/6 male mice; 10 mg/kg BID + CORT): 2.21 mg/g body weight | Fat depot weight, Subcutaneous, Mean (C57BL/6 male mice; 10 mg/kg BID + CORT): 1.95 mg/g body weight | Muscle weight, Quadriceps, Mean (C57BL/6 male mice; 10 mg/kg BID + CORT): 5.90 mg/g body weight | Muscle weight, Tibialis anterior, Mean (C57BL/6 male mice; 10 mg/kg BID + CORT): 2.36 mg/g body weight | Whole-body fat content LSM (C57BL/6 male mice; 10 mg/kg QD + CORT, Day 14): 0.061^b | Whole-body muscle content LSM (C57BL/6 male mice; 10 mg/kg QD + CORT, Day 14): 0.87^b | HOMA-IR LSM (C57BL/6 male mice; 10 mg/kg QD + CORT, Day 15): 1.41^b mmol glucose/μU insulin | Whole-body fat content LSM (C57BL/6 male mice; 10 mg/kg QD + CORT, Day 28): 0.115^ab
